Columns and labels:
orexin-1 receptor (OX1R) = target: T1, orexin-1 receptor (OX1R) (UniProt O43613); experiment: Radioligand binding assay, OX1R; conditions: membranes prepared from CHO cells expressing the orexin-1 (OX1) receptor
T1 sequence (O43613 1-425): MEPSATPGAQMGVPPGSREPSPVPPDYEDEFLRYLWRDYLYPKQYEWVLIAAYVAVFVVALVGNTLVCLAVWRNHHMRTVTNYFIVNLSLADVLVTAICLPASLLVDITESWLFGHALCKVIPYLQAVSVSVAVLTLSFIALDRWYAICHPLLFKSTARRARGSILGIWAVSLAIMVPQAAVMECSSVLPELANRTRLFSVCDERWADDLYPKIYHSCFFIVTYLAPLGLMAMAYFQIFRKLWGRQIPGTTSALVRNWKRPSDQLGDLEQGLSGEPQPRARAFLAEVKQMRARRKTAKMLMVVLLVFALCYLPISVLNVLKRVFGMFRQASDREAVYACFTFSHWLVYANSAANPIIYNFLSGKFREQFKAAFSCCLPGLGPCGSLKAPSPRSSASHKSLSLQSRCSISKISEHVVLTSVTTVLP

orexin-2 receptor (OX2R) = target: T2, orexin-2 receptor (OX2R) (Homo sapiens, UniProt O43614); experiment: Radioligand binding assay, OX2R; conditions: membranes prepared from CHO cells expressing the orexin-2 (OX2) receptor
T2 construct: expressed in transfected cells; host or cells: CHO cells (membranes)
T2 sequence (O43614 1-444): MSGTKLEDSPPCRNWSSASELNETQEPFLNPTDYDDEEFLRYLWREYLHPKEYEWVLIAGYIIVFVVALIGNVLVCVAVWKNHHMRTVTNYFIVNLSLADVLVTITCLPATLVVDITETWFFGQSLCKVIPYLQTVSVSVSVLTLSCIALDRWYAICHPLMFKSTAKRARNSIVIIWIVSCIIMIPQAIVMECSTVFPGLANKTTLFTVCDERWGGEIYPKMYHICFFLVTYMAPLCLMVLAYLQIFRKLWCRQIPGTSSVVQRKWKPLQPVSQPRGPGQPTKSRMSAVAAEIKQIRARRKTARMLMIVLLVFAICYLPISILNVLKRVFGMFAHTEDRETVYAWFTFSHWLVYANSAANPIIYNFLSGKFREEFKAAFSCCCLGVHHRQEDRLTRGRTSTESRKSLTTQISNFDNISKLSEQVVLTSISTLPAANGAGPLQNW

Cc1ccc(-n2nccn2)c(C(=O)N2C[C@H](COc3nccc4ccccc34)OC[C@H]2C)c1 [A-9, 1-({(2R,5R)-5-methyl-4-[5-methyl-2-(2H-1,2,3-triazol-2-yl)benzoyl]morpholin-2-yl}methoxy)isoquinoline] gave a Ki (orexin-1 receptor (OX1R)) of 23 nM.

Work on Cc1ccc(-n2nccn2)c(C(=O)N2C[C@H](COc3ccc(Br)cn3)OC[C@H]2C)c1 [A-10] yielded a Ki (orexin-2 receptor (OX2R)) of 1.3 nM and a Ki (orexin-1 receptor (OX1R)) of 21 nM.

Cc1ccc(-n2nccn2)c(C(=O)N2C[C@H](COc3nccc4ccccc34)OC[C@H]2C)c1 [A-11, 1-({(2R,5R)-5-methyl-4-[5-methyl-2-(2H-1,2,3-triazol-2-yl)benzoyl]morpholin-2-yl}methoxy)isoquinoline] gave a Ki (orexin-1 receptor (OX1R)) of 2.2 nM.

Cc1ccc(-n2nccn2)c(C(=O)N2C[C@H](COc3ccnc4ccccc34)OC[C@H]2C)c1 [A-12, 4-({(2R,5R)-5-methyl-4-[5-methyl-2-(2H-1,2,3-triazol-2-yl)benzoyl]morpholin-2-yl}methoxy)quinoline] gave a Ki (orexin-2 receptor (OX2R)) of 39 nM and a Ki (orexin-1 receptor (OX1R)) of 17 nM.

Work on Cc1ccc(-n2nccn2)c(C(=O)N2C[C@H](COc3ncccc3C)OC[C@H]2C)c1 [A-13, (2R,5R)-5-methyl-2-{[(3-methylpyridin-2-yl)oxy]methyl}-4-[5-methyl-2-(2H-1,2,3-triazol-2-yl)benzoyl]morpholine] yielded a Ki (orexin-2 receptor (OX2R)) of 8.3 nM and a Ki (orexin-1 receptor (OX1R)) of 720 nM.

— patent US8466281B2, “2,5-disubstituted morpholine orexin receptor antagonists” (Merck Sharp & Dohme Corp., priority 2008, dated 2013)
